The values that follow are results of earlier work, collected in article PMC9503778, “Targeted Isolation of Antibiotic Brominated Alkaloids from the Marine Sponge Pseudoceratina durissima Using Virtual Screening and Molecular Networking” (Marine Drugs, 2022).

The structures appear in SMILES notation.

What is called IC50 is the concentration that gives 50% inhibition.

One data set deals with S. aureus. Further details: method as in PMID 8297426. The settings on record: tested at 100 µg/mL; cited from earlier work.
Another data set relates to HIV. Also noted: method as in earlier work. The settings on record: read-out: IC50 against HIV; cited from earlier work.

For `COC1=C(Br)[C@H](O)[C@](O)(CC#N)C=C1Br` [Compound 1, (+)-aeroplysinin-1], the “inhibition zones in disc diffusion assays against S. aureus” value in the data set with S. aureus is recorded as “large inhibition zones”. Besides, in the data set with HIV, the IC50 is 14.6 µM.
